In assay [1] the target is T1, human adenosine A2A receptor (Homo sapiens, UniProt P29274).
T1 construct: expressed in transfected cells; host or cells: CHO cells, Semliki Forest virus expression system; membrane preparation
The assay can be described thus: Human adenosine A2A receptor [3H]-SCH-58261 binding assay. The note with it: for selectivity (A1/A2a): ratio KiHA1 divided by KiHA2A; for Ki: recombinant human A2A in CHO cell membranes, [3H]-SCH-58261, Cheng-Prussoff, read-out: Ki hA2A.

Assay [2] deals with T2, HA1 adenosine receptor (Homo sapiens, UniProt P30542).
T2 sequence (P30542 1-326): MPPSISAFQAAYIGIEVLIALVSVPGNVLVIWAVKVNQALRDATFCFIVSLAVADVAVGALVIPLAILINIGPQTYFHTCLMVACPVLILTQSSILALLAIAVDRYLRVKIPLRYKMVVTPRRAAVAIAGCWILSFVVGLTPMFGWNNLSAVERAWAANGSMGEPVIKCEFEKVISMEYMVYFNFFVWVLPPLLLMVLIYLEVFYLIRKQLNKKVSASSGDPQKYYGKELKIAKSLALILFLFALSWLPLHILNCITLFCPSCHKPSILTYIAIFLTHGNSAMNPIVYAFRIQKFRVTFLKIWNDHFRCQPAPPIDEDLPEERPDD
The experiment in a line: Human adenosine A1 receptor affinity (Ki hA1). Type of assay: binding.

What is called Ki is a measure of affinity in units of concentration, obtained from inhibition or displacement.

T1 sequence (P29274 whole entry): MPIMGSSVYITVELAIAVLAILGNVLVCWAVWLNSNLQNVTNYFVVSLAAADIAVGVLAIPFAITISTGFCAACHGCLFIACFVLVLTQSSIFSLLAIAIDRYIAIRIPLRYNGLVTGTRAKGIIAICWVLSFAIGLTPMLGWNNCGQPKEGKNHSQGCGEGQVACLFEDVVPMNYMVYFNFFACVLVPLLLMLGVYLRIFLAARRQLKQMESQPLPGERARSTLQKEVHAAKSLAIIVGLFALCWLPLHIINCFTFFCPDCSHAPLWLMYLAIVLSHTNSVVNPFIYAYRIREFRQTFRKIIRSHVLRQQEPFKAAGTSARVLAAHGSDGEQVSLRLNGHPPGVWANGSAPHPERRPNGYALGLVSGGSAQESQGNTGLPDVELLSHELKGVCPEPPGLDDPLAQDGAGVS

With `CC1CCCN(C(=O)c2cc(N)n3nc(-c4ccccn4)nc3c2)C1` (stereo not drawn) [Example 419, (5-Amino-2-pyridin-2-yl-[1,2,4]triazolo[1,5-a]pyridin-7-yl)-(3-methyl-piperidin-1-yl)-methanone], in assay [1], the “selectivity (A1/A2a)” value worked out at 35.5 and the inhibitory constant (Ki) was determined as 44.9 nM. Further, the Ki in assay [2] was determined as 1600 nM.
For `CCCN(CCC)C(=O)c1cc(N)n2nc(-c3ccccn3)nc2c1` [Example 420, 5-Amino-2-pyridin-2-yl-[1,2,4]triazolo[1,5-a]pyridine-7-carboxylic acid dipropylamide] the same measures were 17.5, 103 nM and 1810 nM.
As for `CCCCN(CC)C(=O)c1cc(N)n2nc(-c3ccccn3)nc2c1` [Example 421, 5-Amino-2-pyridin-2-yl-[1,2,4]triazolo[1,5-a]pyridine-7-carboxylic acid butyl-ethyl-amide], in assay [1], the “selectivity (A1/A2a)” value amounted to 15.9 and the Ki was 85.7 nM. The same compound displayed a Ki in assay [2] of 1360 nM.
The matching figures for `Nc1cc(C(=O)N2CCCCCCC2)cc2nc(-c3ccccn3)nn12` [Example 422, (5-Amino-2-pyridin-2-yl-[1,2,4]triazolo[1,5-a]pyridin-7-yl)-azocan-1-yl-methanone]: 21.4, 17.4 nM and 372 nM.
The matching figures for `CC1CC(C)CN(C(=O)c2cc(N)n3nc(-c4ccccn4)nc3c2)C1` (stereo not drawn) [Example 423, (5-Amino-2-pyridin-2-yl-[1,2,4]triazolo[1,5-a]pyridin-7-yl)-(3,5-dimethyl-piperidin-1-yl)-methanone]: 24.6, 33.8 nM and 832 nM.
For `CCCN(CC1CC1)C(=O)c1cc(N)n2nc(-c3ccccn3)nc2c1` [Example 424, 5-Amino-2-pyridin-2-yl-[1,2,4]triazolo[1,5-a]pyridine-7-carboxylic acid cyclopropylmethyl-propyl-amide] the same measures were 17.7, 49.6 nM and 878 nM.
As to `COC[C@H]1CCCN1C(=O)c1cc(N)n2nc(-c3ccccn3)nc2c1` [Example 425, (5-Amino-2-pyridin-2-yl-[1,2,4]triazolo[1,5-a]pyridin-7-yl)-(R-2-methoxymethyl-pyrrolidin-1-yl)-methanone], in assay [1], the “selectivity (A1/A2a)” value worked out at 31.7 and the Ki is 40.8 nM. The compound also had a Ki in assay [2] of 1290 nM.
In the case of `COC[C@@H]1CCCN1C(=O)c1cc(N)n2nc(-c3ccccn3)nc2c1` [Example 426, (5-Amino-2-pyridin-2-yl-[1,2,4]triazolo[1,5-a]pyridin-7-yl)-(S-2-methoxymethyl-pyrrolidin-1-yl)-methanone], in assay [1], the “selectivity (A1/A2a)” value was 17.2 and the Ki was found to be 119 nM. In assay [2], affinity was put at a Ki of 2050 nM.
As for `CCCCN(CCC)C(=O)c1cc(N)n2nc(-c3ccccn3)nc2c1` [Example 427, 5-Amino-2-pyridin-2-yl-[1,2,4]triazolo[1,5-a]pyridine-7-carboxylic acid butyl-propyl-amide], in assay [1], the “selectivity (A1/A2a)” value is on record as 11.7 and the inhibition constant (Ki) stood at 102 nM. Also, the affinity in assay [2], expressed as Ki, was 1190 nM.
On to `C=CCN(C(=O)c1cc(N)n2nc(-c3ccccn3)nc2c1)C1CCCC1` [Example 429, 5-Amino-2-pyridin-2-yl-[1,2,4]triazolo[1,5-a]pyridine-7-carboxylic acid allyl-cyclopentyl-amide], for which the “selectivity (A1/A2a)” value in assay [1] was determined as 15.3. In addition, the Ki was 31 nM in assay [1] and 474 nM in assay [2].
For `CCC1CCC(C)N(C(=O)c2cc(N)n3nc(-c4ccccn4)nc3c2)C1` (stereo not drawn) [Example 430, (5-Amino-2-pyridin-2-yl-[1,2,4]triazolo[1,5-a]pyridin-7-yl)-(5-ethyl-2-methyl-piperidin-1-yl)-methanone] the same measures were 10.8, 63.6 nM and 689 nM.

For the origin of these results see patent US6506772B1, “Substituted [1,2,4]triazolo[1,5a]pyridine derivatives with activity as adenosine receptor ligands” (Hoffmann-La Roche Inc., priority 2000, dated 2003).
